Laboratory results: ChEMBL document CHEMBL6096664, “Discovery of novel KSP-targeting PROTACs with potent antitumor effects in vitro and in vivo” (Eur J Med Chem, 2025)

Key:
HCT-116 [1] = assay: Antiproliferative activity against human HCT-116 cells assessed as inhibition of cell proliferation measured after 72 hrs by CCK8 assay; type: functional, cell-based; conditions: HCT-116, 72 h
[2] = molecular target: T1, Protein cereblon/Kinesin-like protein KIF11 (Homo sapiens, UniProt P52732+Q96SW2); assay: PROTAC activity at CRBN/KSP in human HCT-116 cells assessed as induction of KSP degradation incubated for 48 hrs by Western blot analysis; type: cell-based
[3] = molecular target: T1, Protein cereblon/Kinesin-like protein KIF11; assay: PROTAC activity at CRBN/KSP in human HCT-116 cells assessed as induction of KSP degradation by measuring maximal efficacy incubated for 48 hrs by Western blot analysis relative to control; type: cell-based
Target sequence in this assay (Q96SW2 whole entry, looked up, one chain of several): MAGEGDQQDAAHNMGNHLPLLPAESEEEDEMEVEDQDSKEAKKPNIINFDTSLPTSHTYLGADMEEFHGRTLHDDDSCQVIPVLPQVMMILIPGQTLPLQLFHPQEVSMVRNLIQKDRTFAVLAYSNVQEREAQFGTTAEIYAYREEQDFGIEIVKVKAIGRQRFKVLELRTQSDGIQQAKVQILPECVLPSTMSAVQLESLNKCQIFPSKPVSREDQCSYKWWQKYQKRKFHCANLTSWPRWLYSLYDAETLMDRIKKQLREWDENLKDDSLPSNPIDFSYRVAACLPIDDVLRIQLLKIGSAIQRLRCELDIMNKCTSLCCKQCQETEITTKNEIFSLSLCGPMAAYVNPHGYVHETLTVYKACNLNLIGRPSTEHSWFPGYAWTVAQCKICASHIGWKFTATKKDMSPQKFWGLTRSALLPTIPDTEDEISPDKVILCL

[4] = molecular target: T1, Protein cereblon/Kinesin-like protein KIF11; assay: PROTAC activity at CRBN/KSP in human HCT-116 cells assessed as reduction of KSP protein level at 200 nM by Western blot analysis; type: cell-based; conditions: time 6-48 hrs
Target sequence in this assay (Q96SW2 whole entry, looked up, one chain of several): as above

[5] = molecular target: T1, Protein cereblon/Kinesin-like protein KIF11; assay: PROTAC activity at CRBN/KSP in human HCT-116 cells assessed as induction of KSP degradation at 200 nM pretreated with MG-132 for 2 hrs followed by compound addition for 24 hrs by Western blot analysis; type: cell-based
Target sequence in this assay (Q96SW2 whole entry, looked up, one chain of several): as above

[6] = molecular target: T1, Protein cereblon/Kinesin-like protein KIF11; assay: PROTAC activity at CRBN/KSP in human HCT-116 cells assessed as induction of KSP degradation at 200 nM pretreated with MLN4924 for 2 hrs followed by compound addition for 24 hrs by Western blot analysis; type: cell-based
Target sequence in this assay (Q96SW2 whole entry, looked up, one chain of several): as above

[7] = molecular target: T2, Kinesin-like protein KIF11 (Homo sapiens, UniProt P52732); assay: Inhibition of KSP (unknown origin) ATPase activity preincubated for 30 mins followed by ATP addition and measured after 15 mins by Kinase-Glo Plus reagent based luminescence analysis
T2 sequence (P52732 whole entry): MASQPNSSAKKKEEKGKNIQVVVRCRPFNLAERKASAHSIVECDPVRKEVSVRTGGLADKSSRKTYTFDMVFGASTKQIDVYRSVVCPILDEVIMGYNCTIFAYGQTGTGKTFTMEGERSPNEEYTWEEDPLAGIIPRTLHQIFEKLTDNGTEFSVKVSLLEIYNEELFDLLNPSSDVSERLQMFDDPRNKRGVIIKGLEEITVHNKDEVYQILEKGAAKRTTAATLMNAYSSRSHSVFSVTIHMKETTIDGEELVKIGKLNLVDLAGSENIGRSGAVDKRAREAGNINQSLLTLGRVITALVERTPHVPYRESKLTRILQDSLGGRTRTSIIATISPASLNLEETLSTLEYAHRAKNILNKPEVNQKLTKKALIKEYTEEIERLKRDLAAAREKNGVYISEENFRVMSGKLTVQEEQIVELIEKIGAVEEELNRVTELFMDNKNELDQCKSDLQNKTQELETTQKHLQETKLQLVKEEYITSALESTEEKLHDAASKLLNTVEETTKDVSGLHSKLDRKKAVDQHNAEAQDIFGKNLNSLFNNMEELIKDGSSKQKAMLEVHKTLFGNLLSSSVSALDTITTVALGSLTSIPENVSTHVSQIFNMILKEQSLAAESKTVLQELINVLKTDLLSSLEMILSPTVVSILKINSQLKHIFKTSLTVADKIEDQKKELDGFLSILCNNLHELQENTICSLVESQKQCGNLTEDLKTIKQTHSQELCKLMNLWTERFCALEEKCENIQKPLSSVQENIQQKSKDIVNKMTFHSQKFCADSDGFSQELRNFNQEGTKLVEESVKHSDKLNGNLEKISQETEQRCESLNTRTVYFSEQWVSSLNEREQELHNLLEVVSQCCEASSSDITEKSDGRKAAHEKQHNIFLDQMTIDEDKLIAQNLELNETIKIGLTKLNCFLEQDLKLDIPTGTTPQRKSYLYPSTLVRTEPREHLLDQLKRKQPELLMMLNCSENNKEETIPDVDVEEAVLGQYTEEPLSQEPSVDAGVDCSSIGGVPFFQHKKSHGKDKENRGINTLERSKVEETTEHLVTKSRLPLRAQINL

A549 = assay: Antiproliferative activity against human A549 cells assessed as inhibition of cell proliferation measured after 72 hrs by CCK8 assay; type: functional, cell-based; conditions: A549, 72 h
MCF7 = assay: Antiproliferative activity against human MCF7 cells assessed as inhibition of cell proliferation measured after 72 hrs by CCK8 assay; type: functional, cell-based; conditions: MCF7, 72 h
HCT-116 [8] = assay: Induction of apoptosis in human HCT-116 cells assessed as early apoptotic cells at 100 nM incubated for 48 hrs by Annexin V-FITC/PI staining based flow cytometry analysis (reference value: 3.02 %); type: functional
HCT-116 [9] = assay: Induction of apoptosis in human HCT-116 cells assessed as necrotic cells at 100 nM incubated for 48 hrs by Annexin V-FITC/PI staining based flow cytometry analysis (reference value: 1.31 %); type: functional
HCT-116 [10] = assay: Induction of apoptosis in human HCT-116 cells assessed as early apoptotic cells at 10 nM incubated for 48 hrs by Annexin V-FITC/PI staining based flow cytometry analysis (reference value: 3.02 %); type: functional
HCT-116 [11] = assay: Induction of apoptosis in human HCT-116 cells assessed as late apoptotic cells at 10 nM incubated for 48 hrs by Annexin V-FITC/PI staining based flow cytometry analysis (reference value: 1.36 %); type: functional
HCT-116 [12] = assay: Induction of apoptosis in human HCT-116 cells assessed as necrotic cells at 10 nM incubated for 48 hrs by Annexin V-FITC/PI staining based flow cytometry analysis (reference value: 1.31 %); type: functional
HCT-116 [13] = assay: Induction of cell cycle arrest in human HCT-116 cells assessed as accumulation of cells at S phase at 10 nM incubated for 24 hrs by RNase A/propidium iodide staining based flow cytometric analysis (reference value: 2.84 %); type: functional
HCT-116 [14] = assay: Induction of cell cycle arrest in human HCT-116 cells assessed as accumulation of cells at G2/M phase at 10 nM incubated for 24 hrs by RNase A/propidium iodide staining based flow cytometric analysis (reference value: 4.05 %); type: functional
HCT-116 [15] = assay: Induction of cell cycle arrest in human HCT-116 cells assessed as accumulation of cells at G1 phase at 100 nM incubated for 24 hrs by RNase A/propidium iodide staining based flow cytometric analysis (reference value: 93.11 %); type: functional
HCT-116 [16] = assay: Induction of cell cycle arrest in human HCT-116 cells assessed as accumulation of cells at G2/M phase at 100 nM incubated for 24 hrs by RNase A/propidium iodide staining based flow cytometric analysis (reference value: 4.05 %); type: functional
HCT-116 [17] = assay: Antitumor activity against human HCT-116 cells xenografted in female BALB/c nu/nu mouse assessed as reduction in tumor volume at 7.5 mg/kg, ip measured every 2 days for 14 days relative to control; type: functional; design: scale not given: the % may be the effect or the level left; conditions: time 14 day
HCT-116 [18] = assay: Antitumor activity against human HCT-116 cells xenografted in female BALB/c nu/nu mouse assessed as reduction in tumor volume at 15 mg/kg, ip measured every 2 days for 14 days relative to control; type: functional; design: scale not given: the % may be the effect or the level left; conditions: time 14 day
HCT-116 [19] = assay: Antitumor activity against human HCT-116 cells xenografted in female BALB/c nu/nu mouse assessed as reduction in tumor weight at 7.5 mg/kg, ip measured every 2 days for 14 days relative to control; type: functional; design: scale not given: the % may be the effect or the level left; conditions: time 14 day

IC50 (HCT-116 [1]): 10.2 nM
Activity [2]: Dose-dependent-effect
DC50 [2]: 115 nM
Emax [3]: 90%
IC50 [7]: 290 nM
IC50 (A549): 160 nM
IC50 (MCF7): 424 nM
SMILES: COc1ccc(C2(SC[C@H](N)C(=O)NCCCCCCCCNC(=O)COc3cccc4c3C(=O)N(C3CCC(=O)NC3=O)C4=O)c3ccccc3C=Cc3ccccc32)cc1 (some centres not stated)
Activity [4]: Time-dependent-effect; Considerable Ksp Degradation Noticed Within 6 Hrs
Activity [5]: Not active; Compound Induced Ksp Degradation In Mediated Through Ubiquitin-Proteosome System
Activity [6]: Not active; Compound Induced Ksp Degradation In Mediated Through Ubiquitin-Proteosome System
Activity (HCT-116 [8]): 30.35%
Activity (HCT-116 [9]): 14.98%
Activity (HCT-116 [10]): 13.51%
Activity (HCT-116 [11]): 14.96%
Activity (HCT-116 [12]): 13.67%
Activity (HCT-116 [13]): 9.87%
Activity (HCT-116 [14]): 14.79%
Activity (HCT-116 [15]): 9.98%
Activity (HCT-116 [16]): 75.05%
Activity (HCT-116 [17]): 91%
Activity (HCT-116 [18]): 98%
Activity (HCT-116 [19]): 97%
